The values below come from ChEMBL document CHEMBL1201862, “PubChem BioAssay data set” (2004).

Among the test systems are NCI-H23; MOLT-4; UO-31; CCRF-CEM; SN12C; U-251; HOP-62; HOP-92; HT-29; SF-539; SK-MEL-28; NCI-H226; OVCAR-5; UACC-62; RXF 393; SW-620; Malme-3M; COLO 205; K562; KM12.
Holding throughout (experiment): NCI-60 cell line screen, 48 h

SMILES strings stand for the structures.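 48-hour exposure; five concentrations; linearly interpolated endpoints. Here, GI50 denotes the concentration required for 50% inhibition of growth.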 Calls of active or inactive are those of the source. Cut-off read from the data, not from the text of the source: active = GI50 up to about 1.1 µM and inactive = higher.

Regarding `O=C(O)CCC(NC(=O)c1ccc(Nc2nc3cc(C(F)(F)F)ccc3nc2-c2ccccc2)cc1)C(=O)O` (stereo not drawn), the GI50 in the assay with NCI-H23 is > 100 µM (inactive); in the assay on MOLT-4, 44.6 µM (inactive); in the assay on UO-31 it was > 94.6 µM (inactive); with CCRF-CEM, 97.3 µM (inactive); with SN12C, > 100 µM (inactive); with U-251, 67.1 µM (inactive). Moreover, the GI50 in the assay with HOP-62 is > 74.6 µM (inactive); with HOP-92 it was > 52.6 µM (inactive); in the assay on HT-29, 18.8 µM (inactive); in the assay with SF-539, > 84.7 µM (inactive); in the assay on SK-MEL-28, > 100 µM (inactive); in the assay with NCI-H226 it was > 100 µM (inactive). Moreover, the GI50 in the assay on OVCAR-5 is 63.5 µM (inactive); in the assay on UACC-62, > 60.1 µM (inactive); with RXF 393 it was 26.5 µM (inactive); in the assay on SW-620 it was 68.1 µM (inactive); in the assay with Malme-3M, > 100 µM (inactive); with COLO 205, > 55.7 µM (inactive). For the same compound, the values for the GI50 with K562 and with KM12 were 34.4 µM (inactive) and 45.9 µM (inactive), respectively.
`CC1(C)Cc2c(C#N)c(N)c3c(c2CO1)C(=O)OC3=O`: the GI50 in the assay on NCI-H23, in the assay on MOLT-4, in the assay with UO-31, with CCRF-CEM, in the assay with SN12C and in the assay with U-251 was > 100 µM (inactive) throughout. Moreover, the GI50 in the assay with HOP-62, with HT-29, with SF-539, in the assay with SK-MEL-28, with NCI-H226 and in the assay with OVCAR-5 was > 100 µM (inactive) each time. Besides, the GI50 in the assay with UACC-62, with RXF 393, in the assay with SW-620, in the assay with Malme-3M, with COLO 205 and with K562 was > 100 µM (inactive) throughout. The GI50 with KM12 is > 100 µM (inactive).
Turning to `O=c1[nH]c(=O)n(CCOCP(=O)(O)O)nc1Br`, the GI50 with NCI-H23, in the assay with MOLT-4, with UO-31, in the assay with CCRF-CEM, in the assay with SN12C and in the assay on U-251 was > 100 µM (inactive) each time. For the same compound, the GI50 in the assay with HOP-62, with HOP-92, in the assay on HT-29, in the assay with SF-539, with SK-MEL-28 and in the assay with NCI-H226 was > 100 µM (inactive) throughout. Further, the GI50 in the assay with OVCAR-5, in the assay with RXF 393, with SW-620, in the assay on Malme-3M, in the assay with COLO 205 and in the assay with KM12 was > 100 µM (inactive) in each case.
As to `Oc1cc(O)cc(/C=C/c2ccc(O)c(O)c2)c1` [PICEATANNOL], the GI50 in the assay on NCI-H23 was 17.3 µM (inactive); in the assay on MOLT-4, 5.51 µM (inactive); in the assay on UO-31, 10.4 µM (inactive); with CCRF-CEM it was 4.32 µM (inactive); with SN12C it was 12.4 µM (inactive); in the assay on U-251 it was 15.4 µM (inactive). The GI50 with HOP-62 was 16.3 µM (inactive); with HOP-92, 12.3 µM (inactive); in the assay on HT-29 it was 23.2 µM (inactive); in the assay on SF-539 it was 8.91 µM (inactive); with SK-MEL-28, 49.9 µM (inactive); with NCI-H226, 19.5 µM (inactive). Moreover, the GI50 in the assay on OVCAR-5 was 5.06 µM (inactive); in the assay on UACC-62, 3.53 µM (inactive); in the assay on RXF 393, 8.77 µM (inactive); with SW-620 it was 13 µM (inactive); with Malme-3M, 26.1 µM (inactive); in the assay with COLO 205, 23.3 µM (inactive). Further, the results for the GI50 in the assay on K562 and in the assay on KM12 were 4.49 µM (inactive) and 3.52 µM (inactive), respectively.
As for `Cc1c(N2C(=O)/C(=C/C=C/c3ccccc3)N=C2c2ccccc2)c(=O)n(-c2ccccc2)n1C`, the GI50 with NCI-H23 is 22 µM (inactive); in the assay with MOLT-4, 14.9 µM (inactive); in the assay with UO-31 it was 18.4 µM (inactive); in the assay with CCRF-CEM it was 27.2 µM (inactive); in the assay with SN12C, 24.5 µM (inactive); with U-251, 16.8 µM (inactive). The GI50 in the assay on HOP-62 is 26.5 µM (inactive); with HOP-92, 22.2 µM (inactive); with HT-29, 20.3 µM (inactive); with SF-539, 21.3 µM (inactive); in the assay with NCI-H226, 24.7 µM (inactive); in the assay on OVCAR-5, 24.8 µM (inactive). In addition, the GI50 was 16.4 µM (inactive) in the assay with UACC-62; 17.9 µM (inactive) with RXF 393; 31.6 µM (inactive) in the assay on SW-620; 28.8 µM (inactive) with Malme-3M; 15.5 µM (inactive) in the assay on COLO 205; 19 µM (inactive) with K562. Moreover, in the assay with KM12, the GI50 is 25.5 µM (inactive).
Take `CCOC(=O)c1sc2nc(SC)nc(Nc3ccc4c(c3)OCCO4)c2c1N`: the GI50 in the assay on NCI-H23 was 14.2 µM (inactive); in the assay on MOLT-4, 8.05 µM (inactive); with UO-31 it was 15 µM (inactive); in the assay with CCRF-CEM, 16.9 µM (inactive); in the assay with SN12C, 8.49 µM (inactive); in the assay with U-251, 5.87 µM (inactive). Moreover, the GI50 in the assay on HOP-62 was 11.8 µM (inactive); in the assay on HOP-92, 13.1 µM (inactive); in the assay on HT-29, 21 µM (inactive); in the assay with SF-539 it was 7.52 µM (inactive); in the assay on SK-MEL-28 it was > 100 µM (inactive); in the assay with NCI-H226, 3.33 µM (inactive). Further, the GI50 was 17.1 µM (inactive) with OVCAR-5; 11.4 µM (inactive) in the assay with UACC-62; 3.93 µM (inactive) in the assay with RXF 393; 19.5 µM (inactive) in the assay with SW-620; 12 µM (inactive) with Malme-3M; 5.45 µM (inactive) with COLO 205. Also, the GI50 with K562 was 20.6 µM (inactive); in the assay with KM12, 44.6 µM (inactive).
Consider `COc1ccc(Oc2ccccc2N)cc1`, for which the GI50 in the assay with NCI-H23 was 43 µM (inactive); with MOLT-4, 18 µM (inactive); with UO-31 it was 26.5 µM (inactive); with CCRF-CEM it was 10.7 µM (inactive); in the assay with SN12C it was 44.8 µM (inactive); in the assay with U-251, 12.4 µM (inactive). The GI50 is 35.2 µM (inactive) in the assay with HOP-62; 96.2 µM (inactive) in the assay on HOP-92; 39.9 µM (inactive) in the assay with HT-29; 20.2 µM (inactive) in the assay with SF-539; 28.2 µM (inactive) with SK-MEL-28; 41.9 µM (inactive) in the assay on NCI-H226. The GI50 in the assay with OVCAR-5 is 48.6 µM (inactive); with UACC-62 it was 19.3 µM (inactive); in the assay with RXF 393, 19.8 µM (inactive); in the assay with SW-620, 59 µM (inactive); in the assay on Malme-3M, > 100 µM (inactive); in the assay with COLO 205, 16.6 µM (inactive). Also, the results for the GI50 in the assay with K562 and in the assay on KM12 were 29.5 µM (inactive) and 20.9 µM (inactive), respectively.
Consider `COc1ccc(-c2cc(-c3ccccc3)n(C3OCC(OC(C)=O)C(OC(C)=O)C3OC(C)=O)c(=S)c2C#N)cc1` (stereo not drawn), for which the GI50 in the assay on NCI-H23 was > 100 µM (inactive); in the assay with MOLT-4, > 100 µM (inactive); in the assay with UO-31, 28.6 µM (inactive); in the assay on CCRF-CEM it was > 100 µM (inactive); in the assay on SN12C, > 100 µM (inactive); in the assay with U-251, > 100 µM (inactive). Also, the GI50 was > 100 µM (inactive) in the assay with HOP-62; 16 µM (inactive) in the assay with HOP-92; > 100 µM (inactive) in the assay on HT-29; > 100 µM (inactive) with SF-539; > 100 µM (inactive) in the assay on SK-MEL-28; 20 µM (inactive) with NCI-H226. In addition, the GI50 with OVCAR-5 was 87.1 µM (inactive); in the assay with UACC-62 it was 53 µM (inactive); with RXF 393, 37.5 µM (inactive); with SW-620, > 100 µM (inactive); with Malme-3M, > 100 µM (inactive); in the assay with COLO 205, > 100 µM (inactive). Moreover, the GI50 is > 100 µM (inactive) with K562 and 85.3 µM (inactive) in the assay with KM12.
Regarding `O=C1C=C2SC3C[C@@]24CC1[N+]1=c2c4c(c(O)c4c2=C(C=N4)CC1)N3`, the GI50 with MOLT-4 is 1.53 µM (inactive); in the assay on UO-31 it was 16.6 µM (inactive); with CCRF-CEM it was 2 µM (inactive); in the assay on SN12C, 2.67 µM (inactive); in the assay on U-251, 1.9 µM (inactive); in the assay with HOP-62, 17.8 µM (inactive). The GI50 with HOP-92 is > 100 µM (inactive); in the assay with SF-539, 1.9 µM (inactive); with SK-MEL-28, 1.94 µM (inactive); in the assay on NCI-H226, 2.29 µM (inactive); in the assay on OVCAR-5 it was 2.17 µM (inactive); with UACC-62, 1.78 µM (inactive). In addition, the GI50 was 1.99 µM (inactive) with RXF 393; 2.62 µM (inactive) with SW-620; 1.85 µM (inactive) in the assay with Malme-3M; 1.91 µM (inactive) in the assay on COLO 205; 2.44 µM (inactive) in the assay on K562; 2.13 µM (inactive) in the assay on KM12.
In the case of `O=C(Nc1ccc([N+](=O)[O-])cc1)Nn1cnnc1`, the GI50 was 13 µM (inactive) in the assay with NCI-H23; > 100 µM (inactive) with MOLT-4; 53.1 µM (inactive) with UO-31; > 100 µM (inactive) with CCRF-CEM; > 10 µM (inactive) with SN12C; 27.5 µM (inactive) in the assay on U-251. Besides, the GI50 in the assay with HOP-62 is 66.2 µM (inactive); with HOP-92, > 100 µM (inactive); with HT-29, 26.2 µM (inactive); in the assay with SF-539 it was 25.7 µM (inactive); in the assay on SK-MEL-28 it was > 100 µM (inactive); with NCI-H226, < 0.01 µM (active). Further, the GI50 in the assay with OVCAR-5 was > 100 µM (inactive); in the assay on UACC-62 it was 46.3 µM (inactive); with SW-620 it was 89.7 µM (inactive); in the assay with Malme-3M, 15.9 µM (inactive); in the assay with COLO 205, > 100 µM (inactive); in the assay on K562 it was > 100 µM (inactive). The GI50 in the assay on KM12 was 26.1 µM (inactive).
